{"source": "patent US20220064316A1", "about": "“TREATMENT OF CANCER USING HUMANIZED ANTI-BCMA CHIMERIC ANTIGEN RECEPTOR” (The Trustees of the University of Pennsylvania, priority 2014, published 2022)", "key": {"[1]": {"test_system": "CAR-expressing, transduced T cells", "experiment": "Proliferation of CARTs co-cultured with Nalm-6 cells in presence of RAD001", "format": "cell-based", "settings": "low doses of RAD001, 4 days of co-culture with Nalm-6 cells", "description": "CARTs were co-cultured with Nalm-6 cells in the presence of different concentrations of RAD001. The number of CAR-positive CD3-positive T cells (black) and total T cells (gray) was assessed after 4 days of co-culture."}, "[2]": {"test_system": "humanized CD19 CART cells", "experiment": "In vivo proliferation of humanized CD19 CART cells with and without RAD001 dosing", "settings": "RAD001 0.003 mg/kg daily, with huCAR19", "description": "FIGS. 46A and 46B show in vivo proliferation of humanized CD19 CART cells with and without RAD001 dosing. […] Circles denote PBS; squares denote huCTL019; triangles denote huCTL019 with 3 mg/kg RAD001; inverted triangles denote huCTL019 with 0.3 mg/kg RAD001; diamonds denote huCTL019 with 0.03 mg/kg RAD001; and circles denote huCTL019 with 0.003 mg/kg RAD001."}, "[3]": {"test_system": "huCART19 cells co-cultured with Nalm-6", "experiment": "huCART19 proliferation in 4 day co-culture with Nalm-6 in presence of RAD001", "format": "cell-based, human", "description": "A humanized, anti-human CD19 CAR (huCART19) lentiviral transfer vector was used to produce the genomic material packaged into VSVg pseudotyped lentiviral particles. The amino acid and nucleotide sequence of the humanized anti-human CD19 CAR (huCART19) is CAR 1, ID 104875 described in PCT publication, WO2014/153270, filed Mar. 15, 2014, and is designated SEQ ID NOs. 85 and 31 therein.\nLentiviral transfer vector DNA is mixed with the three packaging components VSVg env, gag/pol and rev in combination with lipofectamine reagent to transfect Lenti-X 293T cells. Medium is changed after 24h and 30h thereafter, the virus-containing media is collected, filtered and stored at −80° C. CARTs are generated by transduction of fresh or frozen naïve T cells obtained by negative magnetic selection of healthy donor blood or leukopak. […] The percentage of cells transduced (expressing the CARs on the cell surface) and the level of CAR expression (relative fluorescence intensity, Geo Mean) are determined by flow cytometric analysis between days 7 and 9. […]\nTo evaluate the functionality of CARTs, the T cells are thawed and counted, and viability is assessed by Cellometer. […]\nFor measuring the proliferation of CARTs, T cells are cultured with target cells at a ratio of 1:1. […] The number of T cells is assessed by flow cytometry using counting beads as reference."}, "[4]": {"test_system": "NALM6-luc tumors", "experiment": "NALM6-luc tumor growth under daily oral RAD001", "format": "in vivo, NSG mice", "settings": "daily oral dosing of RAD001 alone", "description": "NALM6-luc cells: The NALM6 human acute lymphoblastic leukemia (ALL) cell line was developed from the peripheral blood of a patient with relapsed ALL. The cells were then tagged with firefly luciferase. These suspension cells grow in RPMI supplemented with 10% heat inactivated fetal bovine serum.\nMice: 6 week old NSG (NOD.Cg-Prkdc^scidIl2rg^tm1Wjl/SzJ) mice were received from the Jackson Laboratory (stock number 005557).\nTumor implantation: NALM6-luc cells were grown and expanded in vitro in RPMI supplemented with 10% heat inactivated fetal bovine serum. The cells were then transferred to a 15 ml conical tube and washed twice with cold sterile PBS. NALM6-luc cells were then counted and resuspended at a concentration of 10×10^6 cells per milliliter of PBS. The cells were placed on ice and immediately (within one hour) implanted in the mice. NALM6-luc cells were injected intravenously via the tail vein in a 100 µl volume, for a total of 1×10^6 cells per mouse.\n(§1) RAD001 dosing: A concentrated micro-emulsion of 50 mg equal to 1 mg RAD001 was formulated and then resuspended in D5W (dextrose 5% in water) at the time of dosing. Mice were orally dosed daily (via oral gavage) with 200 μl of the desired doses of RAD001."}, "[5]": {"experiment": "RAD001 PK analysis in blood of NALM6-luc tumor bearing mice", "format": "in vivo, NSG mice", "description": "as §1\nPK analysis: Mice were dosed daily with RAD001 starting 7 days post tumor implantation. Dosing groups were as follows: 0.3 mg/kg, 1 mg/kg, 3 mg/kg, and 10 mg/kg. Mice were bled on days 0 and 14 following the first and last dose of RAD001, at the following time points for PK analysis: 15 minutes, 30 minutes, 1 hour, 2 hours, 4 hours, 8 hours, 12 hours, and 24 hours."}, "[6]": {"test_system": "huCAR19 CAR T cells", "experiment": "huCAR19 CAR T cell expansion in vivo with RAD001 (FACS)", "parameters": "species or system NSG mice", "settings": "lowest doses of RAD001, daily oral; more evident with CD4+ than CD8+ CAR T cells", "description": "CAR T cell dosing: Mice were administered 5×10^6 CAR T cells 7 days after tumor implantation. Cells were partially thawed in a 37 degree Celsius water bath and then completely thawed by the addition of 1 ml of cold sterile PBS to the tube containing the cells. The thawed cells were transferred to a 15 ml falcon tube and adjusted to a final volume of 10 mls with PBS. The cells were washed twice at 1000 rpm for 10 minutes each time and then counted on a hemocytometer. T cells were then resuspended at a concentration of 50×10^6 CAR T cells per ml of cold PBS and kept on ice until the mice were dosed. The mice were injected intravenously via the tail vein with 100 μl of the CAR T cells for a dose of 5×10^6 CAR T cells per mouse. Eight mice per group were treated either with 100 μl of PBS alone (PBS), or humanized CD19 CAR T cells.\nas §1\nBased on these doses, huCAR19 CAR T cells were dosed with and without RAD001 to determine the proliferative ability of these cells. The highest dose used was 3 mg/kg based on the levels of RAD001 in the blood 24 hours after dosing. […] Mice were monitored via FACS for T cell expansion."}}, "data": [{"smiles": "CO[C@H]1C[C@@H]2CC[C@@H](C)[C@@](O)(O2)C(=O)C(=O)N2CCCC[C@H]2C(=O)O[C@H]([C@H](C)C[C@@H]2CC[C@@H](OCCO)[C@H](OC)C2)CC(=O)[C@H](C)/C=C(\\C)[C@@H](O)[C@@H](OC)C(=O)[C@H](C)C[C@H](C)/C=C/C=C/C=C/1C", "note": "[RAD001, (1R,9S,12S,15R,16E,18R,19R,21R,23 S,24E,26E,28E,30S,32S,35R)-1,18-dihydroxy-12-{(1R)-2-[(1S,3R,4R)-4-(2-hydroxyethoxy)-3-methoxycyclohexyl]-1-methylethyl}-19,30-dimethoxy-15,17,21,23,29,35-hexamethyl-11,36-dioxa-4-aza-tricyclo[30.3.1.04,9]hexatriaconta-16,24,26,28-tetraene-2,3,10,14,20-pentaone]", "values": [{"measurement": "proliferation of CAR-expressing, transduced T cells", "setting": "[1]", "value": "enhanced"}, {"measurement": "CAR T cell proliferation in vivo", "setting": "[2]", "value": "enhancement in CAR T cell proliferation"}, {"measurement": "huCART19 proliferation versus no RAD001", "setting": "[3]; 0.0032 and 0.016 nM RAD001", "value": "higher than observed without the addition of RAD001"}, {"measurement": "RAD001 concentration at which huCART19 cells expanded", "setting": "[3]; 4 day co-culture with Nalm-6, 1:1, lesser extent at higher concentrations", "value": "less than 0.016 nM"}, {"measurement": "growth of NALM6-luc tumors", "setting": "[4]", "value": "did not have an impact"}, {"measurement": "concentration at 24 h", "setting": "[5]; NSG, mouse, whole blood, 24 hours after dosing, 0.3 mg/kg oral daily, day 0 and day 14, read-out: RAD001 concentrations in the blood", "value": "> 10", "unit": "nM"}, {"measurement": "stability in the blood", "setting": "[5]; tumor bearing mice, FIGS. 45A, 45B", "value": "fairly stable"}, {"measurement": "proliferation of the CAR T cells in vivo", "setting": "[6]", "value": "enhanced proliferation"}]}]}
